# Measurements as given in patent US11549123B2, “Plant EPSP synthases and methods of use” (PIONEER HI-BRED INTERNATIONAL, INC., priority 2015, dated 2023).
# Residue numbers refer to the chain shown, from its start.
# Key:
# [1] = target: T1, Zea mays EPSPS variant Zm-H6 (868-H6) (Zea mays, UniProt O24566, A1R/A3W/A415G/A71Q/D401G/E301S/E390G/G101A/I207L/K83R/L97C/T278A/T360S/T440Q/V437R); test: Substrate saturation analysis with glyphosate (Example 8), Zm-H6; assay type: biochemical
# T1 sequence (O24566 with tags, fused parts or gaps A1R/A3W/A71Q/K83R/L97C/G101A/I207L/T278A/E301S/T360S/E390G/D401G/A415G/V437R/T440Q): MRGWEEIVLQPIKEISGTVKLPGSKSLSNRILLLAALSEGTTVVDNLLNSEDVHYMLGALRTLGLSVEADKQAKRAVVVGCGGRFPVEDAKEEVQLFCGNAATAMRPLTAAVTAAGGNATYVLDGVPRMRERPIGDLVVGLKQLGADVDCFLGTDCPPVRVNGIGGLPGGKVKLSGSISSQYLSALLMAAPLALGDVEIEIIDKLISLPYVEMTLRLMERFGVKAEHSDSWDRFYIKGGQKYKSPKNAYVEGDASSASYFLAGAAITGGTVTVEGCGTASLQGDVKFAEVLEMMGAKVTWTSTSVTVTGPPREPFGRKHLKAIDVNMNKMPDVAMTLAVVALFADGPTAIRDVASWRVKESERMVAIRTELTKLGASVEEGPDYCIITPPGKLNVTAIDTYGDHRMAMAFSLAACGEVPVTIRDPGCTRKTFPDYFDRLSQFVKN
# Description: Generally, (kcat/KM)*KI is obtained by performing substrate saturation analysis in the absence and presence of inhibitor. However, that analysis takes longer. […] To validate the method, (kcat/KM)*KI was quantified using both methods—traditional (saturation) and the instant method (rapid), for variants of maize 5-enolpyruvylshikimate-3-phosphate synthase (EPSPS) and its competitive inhibitor, glyphosate.
# The amino acid sequence of mature Zea mays EPSPS was obtained from GenBank entry CAA44974.1 (SEQ ID NO:2). A nucleotide sequence was created to add an N-terminal methionine and to optimize codon usage for expression in E. coli. The synthesized gene was cloned into an expression vector that provides a T7 promoter driving expression of the protein and a 10× N-terminal histidine tag. Variants selected for this study include native maize EPSPS and variants generated by a gene shuffling cascade described herein. […] Protein concentration was determined by absorbance at 280 nm using an extinction coefficient of 0.676 OD/mg/m L. The proteins were normalized to 0.5 mg/mL for assay.
# EPSPS activity was determined by quantifying the phosphate generated by the reaction. […] The absorbance change that occurs was monitored continuously at 360 nm, where the extinction is 11,200 M-1 cm-1, with a Spectramax plate reader (Molecular Devices). […]
# [2] = target: Zea mays EPSPS variant 241A 278G (Zea mays, UniProt O24566, K240A/T277G); test: EPSPS reaction rate with or without 10 uM glyphosate, 241A 278G; assay type: biochemical; conditions: pH 7; read-out: Reaction rate with 10 μM glyph, % no glyph; further: 50 µM PEP and S3P
# [3] = system: Glycine max (93Y21) hairy root; test: Hairy root growth from transformed soybean cotyledons with or without 25 uM glyphosate; assay type: cell-based; conditions: medium containing 25 uM glyphosate
# [4] = target: T2, Zea mays EPSPS variant Zm-H6 (868-H6) with H54E (H6-H54E) (Zea mays, UniProt O24566, A1R/A3W/A415G/A71Q/D401G/E301S/E390G/G101A/H53E/I207L/K83R/L97C/T278A/T360S/T440Q/V437R); test: Substrate saturation kinetic analysis with glyphosate, H6-H54E; assay type: biochemical
# T2 construct: 868-H6 plus H54E; E. coli BL21(DE3), Ni-NTA purified
# T2 sequence (O24566 with tags, fused parts or gaps A1R/A3W/H53E/A71Q/K83R/L97C/G101A/I207L/T278A/E301S/T360S/E390G/D401G/A415G/V437R/T440Q): T1 sequence (O24566 with tags, fused parts or gaps A1R/A3W/A71Q/K83R/L97C/G101A/I207L/T278A/E301S/T360S/E390G/D401G/A415G/V437R/T440Q) with H54E
# [5] = target: T3, Zea mays EPSPS variant Zm-P107S (Zea mays, UniProt O24566, P106S); test: Substrate saturation kinetic analysis with glyphosate, Zm-P107S; assay type: biochemical
# T3 construct: native maize plus P107S; E. coli BL21(DE3), Ni-NTA purified
# T3 sequence (O24566 with tags, fused parts or gaps P106S): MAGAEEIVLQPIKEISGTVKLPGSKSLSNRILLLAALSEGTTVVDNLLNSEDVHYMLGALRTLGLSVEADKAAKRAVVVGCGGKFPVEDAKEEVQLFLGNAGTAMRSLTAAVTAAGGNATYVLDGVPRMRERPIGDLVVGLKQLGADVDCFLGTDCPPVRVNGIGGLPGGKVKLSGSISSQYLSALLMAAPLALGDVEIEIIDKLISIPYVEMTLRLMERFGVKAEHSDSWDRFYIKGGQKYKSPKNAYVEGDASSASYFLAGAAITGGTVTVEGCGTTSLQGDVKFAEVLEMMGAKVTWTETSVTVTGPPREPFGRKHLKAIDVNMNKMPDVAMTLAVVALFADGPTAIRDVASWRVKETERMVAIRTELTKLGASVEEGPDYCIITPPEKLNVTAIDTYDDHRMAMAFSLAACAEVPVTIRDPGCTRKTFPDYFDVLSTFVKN
# Chain of Zea mays EPSPS variant 241A 278G (O24566 entry or part of it K240A/T277G): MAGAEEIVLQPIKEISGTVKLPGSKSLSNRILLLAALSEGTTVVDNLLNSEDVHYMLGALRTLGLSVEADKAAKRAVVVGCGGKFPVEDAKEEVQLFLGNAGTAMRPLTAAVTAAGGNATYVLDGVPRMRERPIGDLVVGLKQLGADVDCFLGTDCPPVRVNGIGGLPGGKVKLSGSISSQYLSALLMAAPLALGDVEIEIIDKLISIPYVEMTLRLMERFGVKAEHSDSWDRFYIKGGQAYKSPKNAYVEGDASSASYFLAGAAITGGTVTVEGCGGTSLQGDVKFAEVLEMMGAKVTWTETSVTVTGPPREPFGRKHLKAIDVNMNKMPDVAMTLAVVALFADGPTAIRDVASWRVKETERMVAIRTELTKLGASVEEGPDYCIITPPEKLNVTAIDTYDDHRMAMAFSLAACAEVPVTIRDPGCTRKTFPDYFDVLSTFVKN
smiles,measurement,setting,value
"O=C(O)CNCP(=O)(O)O [glyphosate, N-phosphonomethylglycine]",Ki,[1],381 µM
same,(kcat/KM)*KI,"[1]; substrate saturation, Zm-H6",3660
same,activity at 10 µM,[2],3.75%
same,root growth of untransformed cotyledons,[3],no growth
same,Ki,[4],488 µM
same,(kcat/KM)*KI,"[4]; substrate saturation, H6-H54E",4340
same,Ki,[5],0.42 µM
same,(kcat/KM)*KI,"[5]; substrate saturation, Zm-P107S",51
